Measurements as given in ChEMBL document CHEMBL6127128, “Discovery of the First-in-Class Dual-Target ROCK/HDAC Inhibitor with Potent Antitumor Efficacy in Vivo That Trigger Antitumor Immunity” (J Med Chem, 2024).
Calls of active or inactive are those of the source. The calls are words filed in the database; no cut-off is given here.

Legend:
MDA-MB-231 [1] = assay: Induction of immunogenic cell death-associated DAMP release in human MDA-MB-231 cells assessed as increase in extracellular HMGB1 release by mesuring increase in HMGB1 level in medium supernatant at 10 uM incubated for 24 hrs by ELISA; assay type: functional, cell-based
Histone deacetylase 11 = target: T1, Histone deacetylase 11 (Homo sapiens, UniProt Q96DB2); assay: Inhibition of HDAC11 (unknown origin) using Ac-Leu-Gly-Lys(Ac)-AMC as substrate preincubated for 5 mins followed by substrate addition for 30 mins and measured following trypsin addition for 30 mins by fluorescence based analysis
T1 sequence (Q96DB2 whole entry): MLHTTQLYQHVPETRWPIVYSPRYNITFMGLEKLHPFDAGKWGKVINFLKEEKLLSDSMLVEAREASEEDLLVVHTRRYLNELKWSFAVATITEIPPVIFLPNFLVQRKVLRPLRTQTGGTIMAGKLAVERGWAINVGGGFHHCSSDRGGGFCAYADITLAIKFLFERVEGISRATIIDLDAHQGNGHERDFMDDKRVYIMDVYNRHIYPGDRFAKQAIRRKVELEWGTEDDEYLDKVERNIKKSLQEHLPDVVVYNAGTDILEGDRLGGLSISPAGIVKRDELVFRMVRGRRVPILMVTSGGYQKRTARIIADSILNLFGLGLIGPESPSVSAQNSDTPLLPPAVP

MDA-MB-231 [2] = assay: Induction of immunogenic cell death-associated DAMP release in human MDA-MB-231 cells assessed as increase in CRT expression level at 1 to 10 uM incubated for 24 hrs by western blot analysis; assay type: functional, cell-based; conditions: dose 1-10 µM
MDA-MB-231 [3] = assay: Cytotoxicity against human MDA-MB-231 cells assessed as reduction in cell viability incubated for 72 hrs by SRB assay; assay type: functional, cell-based; conditions: MDA-MB-231, 72 h
[4] = target: Rho-associated protein kinase 1 (Homo sapiens, UniProt Q13464); assay: Inhibition of N-terminal GST-tagged human recombinant ROCK1 (17 to 535 residues) expressed in baculovirus-infected Sf9 cells by HTRF KinEASE assay
4T1 [5] = assay: Antitumor immunity against mouse 4T1 cells implanted in Balb/c mouse assessed as increase in CD3+ T cells in tumor tissue at 25 mg/kg, po administered daily for 15 days by flow cytometry; assay type: functional, organism-based; conditions: time 15.0 day
[6] = Half-life in Balb/c mouse at 1 mg/kg, iv measured for 24 hrs by LC-MS/MS analysis; assay type: ADME, organism-based; conditions: in vivo
Histone deacetylase 2 = Histone deacetylase 2 (Homo sapiens, UniProt Q92769); assay: Inhibition of HDAC2 (unknown origin) using Ac-Leu-Gly-Lys(Ac)-AMC as substrate preincubated for 5 mins followed by substrate addition for 30 mins and measured following trypsin addition for 30 mins by fluorescence based analysis
MDA-MB-231 [7] = assay: Induction of immunogenic cell death-associated DAMP release in human MDA-MB-231 cells assessed as increase in CRT expression level by measuring increase in green fluorescence intensity at 1 to 10 uM incubated for 24 hrs by DAPI staining based immunofluorescence analysis; assay type: functional; conditions: dose 1-10 µM
Histone deacetylase 4 = Histone deacetylase 4 (Homo sapiens, UniProt P56524); assay: Inhibition of HDAC4 (unknown origin) using Ac-Leu-Gly-Lys(tfa)-AMC as substrate preincubated for 5 mins followed by substrate addition for 30 mins and measured following trypsin addition for 30 mins by fluorescence based analysis
[8] = target: T2, Polyamine deacetylase HDAC10 (Homo sapiens, UniProt Q969S8); assay: Inhibition of HDAC10 (unknown origin) using Ac-Arg-His-Lys(Ac)-Lys(Ac)-AMC as substrate preincubated for 5 mins followed by substrate addition for 30 mins and measured following trypsin addition for 30 mins by fluorescence based analysis
T2 sequence (Q969S8 whole entry): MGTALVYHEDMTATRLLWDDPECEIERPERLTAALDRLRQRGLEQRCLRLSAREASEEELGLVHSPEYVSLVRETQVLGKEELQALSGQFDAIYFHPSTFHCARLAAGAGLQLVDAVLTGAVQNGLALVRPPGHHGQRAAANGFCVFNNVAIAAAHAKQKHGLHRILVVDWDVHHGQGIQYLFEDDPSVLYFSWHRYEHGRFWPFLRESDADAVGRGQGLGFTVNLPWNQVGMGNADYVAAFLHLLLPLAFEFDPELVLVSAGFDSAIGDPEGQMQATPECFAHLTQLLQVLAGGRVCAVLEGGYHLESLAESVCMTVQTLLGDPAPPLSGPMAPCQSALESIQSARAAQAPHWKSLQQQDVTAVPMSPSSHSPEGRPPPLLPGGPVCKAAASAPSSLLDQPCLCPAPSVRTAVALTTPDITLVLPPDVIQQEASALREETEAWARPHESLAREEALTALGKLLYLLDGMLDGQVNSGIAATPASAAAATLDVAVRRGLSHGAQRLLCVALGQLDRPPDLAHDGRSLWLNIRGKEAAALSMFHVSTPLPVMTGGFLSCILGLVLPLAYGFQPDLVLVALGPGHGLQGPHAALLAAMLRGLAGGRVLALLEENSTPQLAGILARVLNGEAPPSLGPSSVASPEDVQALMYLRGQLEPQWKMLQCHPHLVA

Histone deacetylase 1 = Histone deacetylase 1 (Homo sapiens, UniProt Q13547); assay: Inhibition of HDAC1 (unknown origin) using Ac-Leu-Gly-Lys(Ac)-AMC as substrate preincubated for 5 mins followed by substrate addition for 30 mins and measured following trypsin addition for 30 mins by fluorescence based analysis
4T1 [9] = assay: Antitumor immunity against mouse 4T1 cells implanted in Balb/c mouse assessed as increase in CD3+ T cells in tumor tissue at 50 mg/kg, po administered daily for 15 days by flow cytometry relative to SAHA; assay type: functional; conditions: time 15 day
[10] = AUC (0 to infinity) in Balb/c mouse at 50 mg/kg, po measured for 24 hrs by LC-MS/MS analysis; assay type: ADME, organism-based; conditions: in vivo
[11] = Tmax in Balb/c mouse at 50 mg/kg, po measured for 24 hrs by LC-MS/MS analysis; assay type: ADME, organism-based; conditions: in vivo
[12] = Toxicity against Balb/c mouse implanted with mouse 4T1 cells assessed as effect on morphological changes in spleen at 25 to 50 mg/kg, po administered daily for 15 days by Hematoxylin-Eosin staining based analysis; assay type: organism-based; conditions: in vivo, 360 h, dose 25-50 mg/kg, time 15 day

Sequence of Histone deacetylase 1 (Q13547 whole entry): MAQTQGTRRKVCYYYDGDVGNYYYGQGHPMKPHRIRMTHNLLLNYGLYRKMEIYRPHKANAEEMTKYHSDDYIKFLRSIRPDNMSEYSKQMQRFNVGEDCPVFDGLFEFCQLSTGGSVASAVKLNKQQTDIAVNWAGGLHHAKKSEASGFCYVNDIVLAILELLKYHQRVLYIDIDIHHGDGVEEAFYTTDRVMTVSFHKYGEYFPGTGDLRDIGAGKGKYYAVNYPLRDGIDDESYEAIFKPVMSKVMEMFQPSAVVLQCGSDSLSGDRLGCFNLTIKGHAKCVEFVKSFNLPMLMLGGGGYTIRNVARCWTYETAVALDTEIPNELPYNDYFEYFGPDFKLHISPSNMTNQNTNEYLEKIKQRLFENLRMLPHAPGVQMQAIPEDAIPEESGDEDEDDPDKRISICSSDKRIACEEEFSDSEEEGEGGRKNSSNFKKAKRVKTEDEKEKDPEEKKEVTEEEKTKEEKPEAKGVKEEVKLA
Sequence of Histone deacetylase 4 (P56524 whole entry): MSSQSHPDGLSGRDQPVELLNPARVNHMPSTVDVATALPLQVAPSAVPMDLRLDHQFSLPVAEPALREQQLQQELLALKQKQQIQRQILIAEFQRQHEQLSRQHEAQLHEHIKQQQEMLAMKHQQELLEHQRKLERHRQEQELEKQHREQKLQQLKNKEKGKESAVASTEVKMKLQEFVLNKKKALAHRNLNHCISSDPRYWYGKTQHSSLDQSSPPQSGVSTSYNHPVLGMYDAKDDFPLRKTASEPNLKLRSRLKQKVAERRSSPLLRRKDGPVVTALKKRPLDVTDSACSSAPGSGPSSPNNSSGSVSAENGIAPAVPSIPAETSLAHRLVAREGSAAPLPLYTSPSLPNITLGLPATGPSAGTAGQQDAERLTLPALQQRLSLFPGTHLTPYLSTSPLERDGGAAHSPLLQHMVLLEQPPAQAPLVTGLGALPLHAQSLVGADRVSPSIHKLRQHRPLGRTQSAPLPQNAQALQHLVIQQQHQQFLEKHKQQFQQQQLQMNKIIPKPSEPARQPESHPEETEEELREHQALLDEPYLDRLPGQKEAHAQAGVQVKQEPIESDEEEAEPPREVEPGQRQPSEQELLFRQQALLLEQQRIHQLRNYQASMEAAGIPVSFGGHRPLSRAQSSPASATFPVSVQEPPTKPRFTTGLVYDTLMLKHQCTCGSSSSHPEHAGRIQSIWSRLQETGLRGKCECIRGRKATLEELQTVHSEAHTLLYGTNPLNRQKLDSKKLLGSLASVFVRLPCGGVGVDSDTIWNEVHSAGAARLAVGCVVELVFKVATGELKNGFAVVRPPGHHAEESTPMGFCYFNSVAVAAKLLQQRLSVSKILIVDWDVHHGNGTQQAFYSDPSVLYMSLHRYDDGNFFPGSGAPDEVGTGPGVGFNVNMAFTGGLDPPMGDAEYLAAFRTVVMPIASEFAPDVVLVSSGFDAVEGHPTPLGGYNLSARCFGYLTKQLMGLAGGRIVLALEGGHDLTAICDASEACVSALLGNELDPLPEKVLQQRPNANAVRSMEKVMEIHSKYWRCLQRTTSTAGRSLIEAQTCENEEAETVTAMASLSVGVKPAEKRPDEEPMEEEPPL
Sequence of Rho-associated protein kinase 1 (Q13464 whole entry, the tested form may be a part): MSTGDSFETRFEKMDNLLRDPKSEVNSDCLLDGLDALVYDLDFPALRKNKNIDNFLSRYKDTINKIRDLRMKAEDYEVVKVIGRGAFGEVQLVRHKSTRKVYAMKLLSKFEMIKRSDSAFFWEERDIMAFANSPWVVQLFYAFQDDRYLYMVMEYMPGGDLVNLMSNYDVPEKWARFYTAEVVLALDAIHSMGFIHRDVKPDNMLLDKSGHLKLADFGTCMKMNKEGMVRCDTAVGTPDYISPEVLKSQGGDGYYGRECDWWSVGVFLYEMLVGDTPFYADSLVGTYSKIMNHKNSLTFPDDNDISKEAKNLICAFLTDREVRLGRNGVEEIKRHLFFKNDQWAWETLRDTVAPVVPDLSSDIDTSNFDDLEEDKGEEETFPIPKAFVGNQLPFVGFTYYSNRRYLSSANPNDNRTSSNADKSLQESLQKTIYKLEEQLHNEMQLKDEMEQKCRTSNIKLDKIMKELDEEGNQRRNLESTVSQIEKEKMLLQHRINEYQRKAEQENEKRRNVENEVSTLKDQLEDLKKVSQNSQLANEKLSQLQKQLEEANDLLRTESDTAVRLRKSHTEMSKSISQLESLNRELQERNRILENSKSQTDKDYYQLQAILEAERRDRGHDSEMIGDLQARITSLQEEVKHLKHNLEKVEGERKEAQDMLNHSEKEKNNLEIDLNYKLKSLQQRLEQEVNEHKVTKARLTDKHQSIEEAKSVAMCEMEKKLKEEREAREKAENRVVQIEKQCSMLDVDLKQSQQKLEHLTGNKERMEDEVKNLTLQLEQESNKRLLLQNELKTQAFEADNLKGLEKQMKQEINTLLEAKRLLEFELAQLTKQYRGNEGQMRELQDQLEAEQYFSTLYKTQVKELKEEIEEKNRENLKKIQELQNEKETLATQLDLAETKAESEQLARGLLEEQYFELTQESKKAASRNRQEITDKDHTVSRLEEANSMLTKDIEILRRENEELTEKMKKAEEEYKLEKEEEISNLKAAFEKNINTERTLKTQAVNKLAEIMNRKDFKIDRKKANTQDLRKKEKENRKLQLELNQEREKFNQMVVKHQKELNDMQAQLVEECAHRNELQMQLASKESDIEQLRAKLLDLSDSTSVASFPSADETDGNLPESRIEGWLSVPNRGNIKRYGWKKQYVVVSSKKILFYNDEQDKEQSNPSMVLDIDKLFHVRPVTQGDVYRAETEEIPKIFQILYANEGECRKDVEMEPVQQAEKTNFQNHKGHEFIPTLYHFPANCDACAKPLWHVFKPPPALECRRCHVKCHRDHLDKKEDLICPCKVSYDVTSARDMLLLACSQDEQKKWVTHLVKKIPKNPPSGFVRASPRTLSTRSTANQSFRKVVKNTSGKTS
Sequence of Histone deacetylase 2 (Q92769 whole entry): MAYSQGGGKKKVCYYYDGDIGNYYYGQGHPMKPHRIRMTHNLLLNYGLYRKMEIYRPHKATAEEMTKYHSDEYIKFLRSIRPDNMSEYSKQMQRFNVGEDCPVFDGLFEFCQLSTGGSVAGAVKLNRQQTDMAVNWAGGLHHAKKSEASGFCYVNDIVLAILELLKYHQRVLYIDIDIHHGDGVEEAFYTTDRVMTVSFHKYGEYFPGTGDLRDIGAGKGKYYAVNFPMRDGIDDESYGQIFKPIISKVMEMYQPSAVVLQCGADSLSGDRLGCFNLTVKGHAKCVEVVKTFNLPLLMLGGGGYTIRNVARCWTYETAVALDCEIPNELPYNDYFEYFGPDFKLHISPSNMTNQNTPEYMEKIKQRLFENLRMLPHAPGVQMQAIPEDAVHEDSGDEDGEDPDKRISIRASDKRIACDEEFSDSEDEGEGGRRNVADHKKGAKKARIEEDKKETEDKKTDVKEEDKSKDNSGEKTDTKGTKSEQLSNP

IC50 (Histone deacetylase 11): > 10000 nM
IC50 [4]: 58.2 nM
half-life [6]: 22.3 h
IC50 (Histone deacetylase 2): 8.03 nM
IC50 (Histone deacetylase 4): > 10000 nM
IC50 [8]: > 10000 nM
IC50 (Histone deacetylase 1): 9.09 nM
AUC(0-inf) [10]: 5.95 ng·h/mL
Tmax [11]: 1.8 min
Compound: O=C(CCCCCCNC(=O)c1cc2cc(-c3cn[nH]c3)ccc2s1)NO
Activity (MDA-MB-231 [1]): Active
Activity (MDA-MB-231 [2]): Active
IC50 (MDA-MB-231 [3]): 370 nM
Activity (4T1 [5]): Active
Activity (MDA-MB-231 [7]): Active
fold change (FC) (4T1 [9]): 1.36
Activity [12]: Non-Toxic
